PMC12274739, “Differential substrate degradation by super-degron: EGFP in wild-type mouse cells, PD-1 requires CRBN humanization” (iScience, 2025)
Where “and” joins values, the source holds several entries; their conditions need not be identical. Equal values may be shown once. Read-outs that look alike come from different tables or passages of the source.

Key:
[1] = Histopathological examination of organs; format: in vivo, mouse; settings: Pdcd1SD/SD/CrbnI391V/I391V mice with MC-38 inoculation and IBR treatment
Procedure: The important functions of PD-1 are to suppress autoimmunity, and depletion or suppression of PD-1 leads to autoimmune diseases.[37]
Mice were sacrificed under deep anesthesia then all organs were isolated and immediately immersed in 10% buffered neutral formalin. After fixation for 48 h, tissues were processed as formalin-fixed paraffin-embedded blocks and sliced into 3 μmμ sections, followed by hematoxylin and eosin (HE) staining, periodic acid Schiff (PAS) staining, and Elastica-Masson Goldner staining. All slides were analyzed by a skilled pathologist (T.M.). Glomerular lesions were evaluated using the histological glomerular index, and other organs were scored from 0 (normal) to 3 (necrotic, severe organ injury).
Figure S11 Histological analysis of super degron tag-knockin mice for autoimmune […]
Representative histological manifestations of kidney (A-C), liver (D-F) and large intestine (G-I) of Pdcd1SD/SD/CrbnI391V/I391V mice (A, D and G), Pdcd1+/+/CrbnI391V/I391V mice (B, E and H) and […]
Liver and large intestine manifested normal histological findings in each group (A-C: PAS stain, d-i: HE stain, Bar = 25 µm in A-C, 100 µm in D-I).
(§1) (1 picture or pasted object on this page, not shown here)
Figure S12 Glomerular index of super degron tag-knockin mice
Glomerular index of each group of mice. […]
higher index nevertheless there were no statistically significant differences among

[2] = tested on: EGFP-SD; format: cell-based, mouse; settings: for Plateau, EGFP-SD degradation: control = 1; for K, EGFP-SD degradation: one phase decay
[3] = tested on: EGFP-SD (C-terminal SD); format: cell-based, mouse; settings: Crbn+/I391V mESCs (h/mCRBN), transient, 24 h
[4] = biological target: EGFP-SD (C-terminal SD) (Aequorea victoria, UniProt P42212, F64L/H231L/S65T); format: cell-based, mouse; settings: transient, 24 h; for DC50: read-out: DC50, EGFP-SD
[5] = tested on: mouse PD-1-SD; assay: Linker evaluation of mouse PD-1-SD in Jurkat cells; format: cell-based, human; settings: PD-1-SD with a linker, 1 µM iberdomide for 1 day
From the text: We used human Jurkat cells as it was difficult to accurately assess exogenous PD-1 expression, as EL4 cells originally expressed mouse PD-1. […] Therefore, the simplest “no linker” construct was adopted for in vivo protein knockdown in mice. Considering that fluorescent proteins affect the degradation efficiency of PD-1,[31] we decided to knock in without a fluorescent protein as a marker. SD was inserted downstream of the endogenous Pdcd1 gene (the gene encoding PD-1) in Crbn^I391V/I391V mice using genome editing (Figures 6A and S5), and double homozygous (Pdcd1^SD/SD/Crbn^I391V/I391V) mice were produced by intercrossing.
Figure S4 Evaluation of linker sequences between PD-1 and super degron tag A Amino acid sequences of various linkers between PD-1 and super degron (SD) tag. Sequences […]
were measured by flow cytometry, and the geometric means of fluorescence intensities (MFI) were calculated. The dots indicate the results of the experiment for each of the three samples.
as §1

[6] = tested on: SD-tagged EGFP; assay: Degradation of SD-tagged EGFP in Crbn−/− (CRBN-KO) mESCs; format: cell-based, mouse; settings: IBR up to 1 μM, 24 h
[7] = tested on: SD-EGFP (N-terminal SD); format: cell-based, mouse; settings: Crbn+/I391V mESCs (h/mCRBN), transient, 24 h
[8] = biological target: SD-EGFP (N-terminal SD) (Aequorea victoria, UniProt P42212, F64L/H231L/S65T); format: cell-based, mouse; settings: transient, 24 h; for DC50: read-out: DC50, SD-EGFP
[9] = biological target: SD-EGFP (Aequorea victoria, UniProt P42212, F64L/H231L/S65T); settings: rat ESCs, stable
[10] = mouse wild-type cell lines, independent of IBR concentration

O=C1CC[C@H](N2Cc3c(OCc4ccc(CN5CCOCC5)cc4)cccc3C2=O)C(=O)N1 [IBR, iberdomide]
histopathological organ injury [1]: no significant organ injury | Tau, EGFP-SD degradation ([2]; EL4, 0.01 µM IBR): 0.5057 | Plateau, EGFP-SD degradation ([2]; EL4, 0.01 µM IBR): 0.106 and 0.11 | K, EGFP-SD degradation ([2]; EL4, 0.01 µM IBR): 1.978 | Tau, EGFP-SD degradation ([2]; EL4, 0.1 µM IBR): 0.4779 | Plateau, EGFP-SD degradation ([2]; EL4, 0.1 µM IBR): 0.0948 | K, EGFP-SD degradation ([2]; EL4, 0.1 µM IBR): 2.093 | Tau, EGFP-SD degradation ([2]; EL4, 1 µM IBR): 0.4762 | Plateau, EGFP-SD degradation ([2]; EL4, 1 µM IBR): 0.09035 | K, EGFP-SD degradation ([2]; EL4, 1 µM IBR): 2.1 | Tau, EGFP-SD degradation ([2]; NIH/3T3, 0.01 µM IBR): 0.5217 | Plateau, EGFP-SD degradation ([2]; NIH/3T3, 0.01 µM IBR): 0.1206 and 0.12 | K, EGFP-SD degradation ([2]; NIH/3T3, 0.01 µM IBR): 1.917 | Tau, EGFP-SD degradation ([2]; NIH/3T3, 0.1 µM IBR): 0.4536 | Plateau, EGFP-SD degradation ([2]; NIH/3T3, 0.1 µM IBR): 0.09879 | K, EGFP-SD degradation ([2]; NIH/3T3, 0.1 µM IBR): 2.205 | Tau, EGFP-SD degradation ([2]; NIH/3T3, 1 µM IBR): 0.4422 | Plateau, EGFP-SD degradation ([2]; NIH/3T3, 1 µM IBR): 0.0887 | K, EGFP-SD degradation ([2]; NIH/3T3, 1 µM IBR): 2.261 | Tau, EGFP-SD degradation ([2]; mESCs, 0.01 µM IBR): 0.9013 | Plateau, EGFP-SD degradation ([2]; mESCs, 0.01 µM IBR): 0.1599 and 0.16 | K, EGFP-SD degradation ([2]; mESCs, 0.01 µM IBR): 1.11 | Tau, EGFP-SD degradation ([2]; mESCs, 0.1 µM IBR): 0.8006 | Plateau, EGFP-SD degradation ([2]; mESCs, 0.1 µM IBR): 0.1092 | K, EGFP-SD degradation ([2]; mESCs, 0.1 µM IBR): 1.249 | Tau, EGFP-SD degradation ([2]; mESCs, 1 µM IBR): 0.8069 | Plateau, EGFP-SD degradation ([2]; mESCs, 1 µM IBR): 0.09822 | K, EGFP-SD degradation ([2]; mESCs, 1 µM IBR): 1.239 | time after which EGFP-SD expression was minimal ([2]; mESCs, NIH/3T3, EL4): 6 h | time to halve the amount of EGFP-SD [2, 10]: 20 to 40 min | time to reduce EGFP-SD to 10% [2, 10]: approximately 3 h | Bottom, EGFP-SD (EGFP/mCherry MFI) [3]: 0.01502 | DC50 [3]: 0.0707 nM | bottom vs top, EGFP-SD [3]: 0.04 | Bottom, EGFP-SD (EGFP/mCherry MFI) ([4]; B6J-S1 mESCs): 0.03557 | bottom vs top, EGFP-SD ([4]; B6J-S1 mESCs): 0.10 | Bottom, EGFP-SD (EGFP/mCherry MFI) ([4]; Crbn+/+ mESCs (mCRBN)): 0.04584 | bottom vs top, EGFP-SD ([4]; Crbn+/+ mESCs (mCRBN)): 0.15 | Bottom, EGFP-SD (EGFP/mCherry MFI) ([4]; CrbnI391V/I391V mESCs (hCRBN)): 0.007275 | bottom vs top, EGFP-SD ([4]; CrbnI391V/I391V mESCs (hCRBN)): 0.03 | DC50 ([4]; B6J-S1 mESCs): 0.815 nM | DC50 ([4]; Crbn+/+ mESCs (mCRBN)): 2.17 nM | DC50 ([4]; CrbnI391V/I391V mESCs (hCRBN)): 0.0654 nM | PD-1 expression [5]: significantly reduced | degradation of SD-tagged EGFP [6]: did not occur | Bottom, SD-EGFP (EGFP/mCherry MFI) [7]: 0.07126 | DC50 [7]: 0.0784 nM | bottom vs top, SD-EGFP [7]: 0.18 | Bottom, SD-EGFP (EGFP/mCherry MFI) ([8]; B6J-S1 mESCs): 0.09529 | bottom vs top, SD-EGFP ([8]; B6J-S1 mESCs): 0.24 | Bottom, SD-EGFP (EGFP/mCherry MFI) ([8]; Crbn+/+ mESCs (mCRBN)): 0.113 | bottom vs top, SD-EGFP ([8]; Crbn+/+ mESCs (mCRBN)): 0.25 | Bottom, SD-EGFP (EGFP/mCherry MFI) ([8]; CrbnI391V/I391V mESCs (hCRBN)): 0.04953 | bottom vs top, SD-EGFP ([8]; CrbnI391V/I391V mESCs (hCRBN)): 0.13 | DC50 ([8]; B6J-S1 mESCs): 1.82 nM | DC50 ([8]; Crbn+/+ mESCs (mCRBN)): 6.06 nM | DC50 ([8]; CrbnI391V/I391V mESCs (hCRBN)): 0.0637 nM | Bottom, SD-EGFP [9]: 0.01454 | bottom vs top, SD-EGFP ([9]; IBR up to 1 μM): 0.057 | DC50 ([9]; read-out: DC50, SD-EGFP): 0.271 nM
